Like-named read-outs stand apart in the source and are kept apart here.
Tests used:
human H3 receptor = molecular target: T1, human H3 receptor (Homo sapiens, UniProt Q9Y5N1); assay: H3 receptor binding (N-[3H]-α-methylhistamine displacement); details: membranes of SK-N-MC cells expressing cloned human H3 receptor, 0.8 nM N-[3H]-α-methylhistamine, 60 min at 25° C.
T1 construct: expressed in transfected cells

Rat SERT = molecular target: T2, Rat SERT (Rattus norvegicus, UniProt P31652); assay: Rat brain SERT binding ([3H]-citalopram displacement); details: rat brain membranes without cerebellum, 0.6 nM [3H]-citalopram, 60 min at 25° C.
T2 construct: A rat brain without cerebellum (Zivic Laboratories, Inc.—Pittsburgh, Pa.) was homogenized; tissue Zivic Laboratories, Inc; host or cells: rat brain without cerebellum, membranes
Method: The supernatant was removed and re-centrifuged at 15,000 rpm for 30 min. […] Membranes were incubated with 0.6 nM [^3H]-Citalopram plus/minus test compounds for 60 min at 25° C. and harvested by rapid filtration over GF/C glass fiber filters (pretreated with 0.3% polyethylenimine) followed by four washes with ice-cold buffer.

human SERT = molecular target: T3, human SERT (Homo sapiens, UniProt P31645); assay: Human SERT binding (3H-citalopram displacement); details: HEK293 membranes expressing human SERT, rt 1 h
T3 construct: expressed in transfected cells; host or cells: HEK293 membranes
Method: Homogenized HEK293 (Human Embryonic Kidney) membranes expressing the human SERT were incubated with ^3H-citalopram (SERT) at rt for 1 h in 50 mM Tris, 120 mM NaCl, 5 mM KCl (pH 7.4). […] The membranes were washed and the radioactivity was counted as above.

T1 sequence (Q9Y5N1 whole entry): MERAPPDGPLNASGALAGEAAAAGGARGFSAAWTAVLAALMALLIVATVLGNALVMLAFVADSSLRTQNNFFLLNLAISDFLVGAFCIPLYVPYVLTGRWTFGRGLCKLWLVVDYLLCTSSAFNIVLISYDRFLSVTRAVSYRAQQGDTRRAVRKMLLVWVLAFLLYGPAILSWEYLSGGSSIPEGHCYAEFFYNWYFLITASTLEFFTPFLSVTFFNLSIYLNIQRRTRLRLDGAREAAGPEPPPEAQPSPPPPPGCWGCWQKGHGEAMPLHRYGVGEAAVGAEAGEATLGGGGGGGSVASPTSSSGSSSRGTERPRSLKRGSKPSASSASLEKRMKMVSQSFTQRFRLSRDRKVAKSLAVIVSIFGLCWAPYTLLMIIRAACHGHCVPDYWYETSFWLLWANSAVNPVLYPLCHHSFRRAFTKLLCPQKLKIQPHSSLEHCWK
T2 sequence (P31652 whole entry): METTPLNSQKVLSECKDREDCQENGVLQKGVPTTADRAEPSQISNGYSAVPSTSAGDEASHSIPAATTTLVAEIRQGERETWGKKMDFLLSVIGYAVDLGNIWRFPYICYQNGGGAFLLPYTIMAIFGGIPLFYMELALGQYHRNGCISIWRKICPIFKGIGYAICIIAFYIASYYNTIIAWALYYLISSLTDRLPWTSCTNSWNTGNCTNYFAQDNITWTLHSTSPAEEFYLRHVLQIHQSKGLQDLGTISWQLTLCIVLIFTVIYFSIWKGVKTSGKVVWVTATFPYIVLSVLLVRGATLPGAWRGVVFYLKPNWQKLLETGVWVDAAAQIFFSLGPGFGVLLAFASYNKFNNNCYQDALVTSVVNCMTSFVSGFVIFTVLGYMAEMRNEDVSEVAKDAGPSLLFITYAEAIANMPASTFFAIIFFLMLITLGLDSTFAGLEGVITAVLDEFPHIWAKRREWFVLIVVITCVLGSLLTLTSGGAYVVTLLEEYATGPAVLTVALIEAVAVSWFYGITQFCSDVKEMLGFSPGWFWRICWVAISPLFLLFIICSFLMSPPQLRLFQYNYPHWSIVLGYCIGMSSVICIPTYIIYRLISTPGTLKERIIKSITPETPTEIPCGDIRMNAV
T3 sequence (P31645 whole entry): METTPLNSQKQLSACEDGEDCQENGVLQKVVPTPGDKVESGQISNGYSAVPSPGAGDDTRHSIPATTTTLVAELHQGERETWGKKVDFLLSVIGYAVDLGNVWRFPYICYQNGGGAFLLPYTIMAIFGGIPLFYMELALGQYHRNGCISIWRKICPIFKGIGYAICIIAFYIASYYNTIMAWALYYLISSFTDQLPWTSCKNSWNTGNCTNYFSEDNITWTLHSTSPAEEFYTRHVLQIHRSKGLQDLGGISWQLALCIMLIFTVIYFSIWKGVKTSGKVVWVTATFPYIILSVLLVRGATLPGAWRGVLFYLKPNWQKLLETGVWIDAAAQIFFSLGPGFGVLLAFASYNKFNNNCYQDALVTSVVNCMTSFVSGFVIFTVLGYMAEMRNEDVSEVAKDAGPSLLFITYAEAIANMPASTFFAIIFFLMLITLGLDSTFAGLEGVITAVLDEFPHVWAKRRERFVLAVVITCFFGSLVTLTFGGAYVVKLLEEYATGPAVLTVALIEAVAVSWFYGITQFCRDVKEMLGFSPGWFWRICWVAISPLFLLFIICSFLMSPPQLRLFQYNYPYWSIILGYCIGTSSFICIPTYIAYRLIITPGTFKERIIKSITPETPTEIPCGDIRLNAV

Structure (SMILES) | Ki (human H3 receptor) [nM] | Ki (Rat SERT; read-out: Rat SERT Ki) [nM] | Ki (human SERT) [nM] | Ki (Rat SERT; Rat SERT Ki (nM)) [nM]
CSc1ccc(C2CN(C)Cc3cc(OC4CCN(CCF)CC4)ccc32)cc1 (stereo not drawn) [Example 179, 7-[1-(2-Fluoro-ethyl)-piperidin-4-yloxy]-2-methyl-4-(4-methylsulfanyl-phenyl)-1,2,3,4-tetrahydro-isoquinoline] | 5 | 3 | 4 | 
COc1ccc(C2CN(C(C)(C)C)Cc3cc(OCCCN4CCCCC4)ccc32)cc1 (stereo not drawn) [Example 64, 2-tert-Butyl-4-(4-methoxy-phenyl)-7-(3-piperidin-1-yl-propoxy)-1,2,3,4-tetrahydro-isoquinoline] | 1 | 222 | 252 | 
COc1ccc(C2CN(C)Cc3cc(CCCCN4CCOCC4)ccc32)cc1 (stereo not drawn) [Example 281, 4-(4-Methoxy-phenyl)-2-methyl-7-(4-morpholin-4-yl-butyl)-1,2,3,4-tetrahydro-isoquinoline] | 23 | 6 | 8 | 
COc1ccc(C2CN(C)Cc3cc(OCCCN4CCN(C(=O)c5ccncc5)CC4)ccc32)cc1 (stereo not drawn) [Example 4, (4-{3-[4-(4-Methoxy-phenyl)-2-methyl-1,2,3,4-tetrahydro-isoquinolin-7-yloxy]-propyl}-piperazin-1-yl)-pyridin-4-yl-methanone] | 4000 | 33 | 21 | 
COc1ccc(C2CN(C)Cc3cc(OC4CCN(C(C)C)CC4)ccc32)cc1 (stereo not drawn) [Example 117, 7-(1-Isopropyl-piperidin-4-yloxy)-4-(4-methoxy-phenyl)-2-methyl-1,2,3,4-tetrahydro-isoquinoline] | 1 | 9 | 10 | 
CN1Cc2cc(OCCCN3CCC(F)CC3)ccc2C(c2ccc(Cl)cc2)C1 (stereo not drawn) [Example 47, 4-(4-Chloro-phenyl)-7-[3-(4-fluoro-piperidin-1-yl)-propoxy]-2-methyl-1,2,3,4-tetrahydro-isoquinoline] | 10 | 27 | 11 | 
CCOc1ccc(C2CN(C)Cc3cc(OCCCN4CCC(F)CC4)ccc32)cc1 (stereo not drawn) [Example 145, 4-(4-Ethoxy-phenyl)-7-[3-(4-fluoro-piperidin-1-yl)-propoxy]-2-methyl-1,2,3,4-tetrahydro-isoquinoline] | 5 | 3 | 5 | 
COc1ccc(C2CN(C)Cc3cc(C#CCCN4CCOCC4)ccc32)cc1 (stereo not drawn) [Example 276, 4-(4-Methoxy-phenyl)-2-methyl-7-(4-morpholin-4-yl-but-1-ynyl)-1,2,3,4-tetrahydro-isoquinoline] | 86 | 18 | 9 | 
COc1ccc(C2CN(C)Cc3cc(OCCCN4CCCCC4CO)ccc32)cc1 (stereo not drawn) [Example 24, (1-{3-[4-(4-Methoxy-phenyl)-2-methyl-1,2,3,4-tetrahydro-isoquinolin-7-yloxy]-propyl}-piperidin-2-yl)-methanol] | 2 | 2 | 3 | 
COc1ccc(C2CN(C)Cc3cc(CCCCN4CCC(F)(F)CC4)ccc32)cc1 (stereo not drawn) [Example 280, 7-[4-(4,4-Difluoro-piperidin-1-yl)-butyl]-4-(4-methoxy-phenyl)-2-methyl-1,2,3,4-tetrahydro-isoquinoline] | 96 | 4 | 13 | 
COc1ccc(C2CN(C)Cc3cc(OCCCN4CCC(F)CC4)ccc32)cc1F (racemic) [Example 142, 4-(3-Fluoro-4-methoxy-phenyl)-7-[3-(4-fluoro-piperidin-1-yl)-propoxy]-2-methyl-1,2,3,4-tetrahydro-isoquinoline] | 3 | 4 | 7 | 
COc1ccc(C2CN(C)Cc3cc(OC4CCNCC4)ccc32)cc1 (stereo not drawn) [Example 148, 4-(4-Methoxy-phenyl)-2-methyl-7-(piperidin-4-yloxy)-1,2,3,4-tetrahydro-isoquinoline] | 262 | 3 | 5 | 
COc1ccc(C2CN(C)Cc3cc(OCCCN4CCCC4C)ccc32)cc1 (stereo not drawn) [Example 35, 4-(4-Methoxy-phenyl)-2-methyl-7-[3-(2-methyl-pyrrolidin-1-yl)-propoxy]-1,2,3,4-tetrahydro-isoquinoline] | 1 |  | 3 | 2
CSc1ccc(C2CN(C)Cc3cc(OCC4CCN(C(C)C)CC4)ccc32)cc1 (stereo not drawn) [Example 103, 7-(1-Isopropyl-piperidin-4-ylmethoxy)-2-methyl-4-(4-methylsulfanyl-phenyl)-1,2,3,4-tetrahydro-isoquinoline] | 7 | 8 | 3 | 
CN1Cc2cc(OCCCN3CCC(F)CC3)ccc2C(c2cccc(Cl)c2)C1 (stereo not drawn) [Example 46, 4-(3-Chloro-phenyl)-7-[3-(4-fluoro-piperidin-1-yl)-propoxy]-2-methyl-1,2,3,4-tetrahydro-isoquinoline] | 3 | 14 | 26 | 
CN1Cc2cc(OCCCN3CCCCC3)ccc2C(c2ccc(OC(F)(F)F)cc2)C1 (stereo not drawn) [Example 222, 2-Methyl-7-(3-piperidin-1-yl-propoxy)-4-(4-trifluoromethoxy-phenyl)-1,2,3,4-tetrahydro-isoquinoline] | 30 | 30 | 18 | 
COc1ccc(C2CN(C)Cc3cc(OC4CCN(CCF)CC4)ccc32)cc1 (stereo not drawn) [Example 152, 7-[1-(2-Fluoro-ethyl)-piperidin-4-yloxy]-4-(4-methoxy-phenyl)-2-methyl-1,2,3,4-tetrahydro-isoquinoline] | 5 | 6 | 11 | 
COc1ccc(C2CN(C)Cc3cc(C#CCCN4CCN(C(C)C)CC4)ccc32)cc1 (stereo not drawn) [Example 278, 7-[4-(4-Isopropyl-piperazin-1-yl)-but-1-ynyl]-4-(4-methoxy-phenyl)-2-methyl-1,2,3,4-tetrahydro-isoquinoline] | 315 | 5 | 9 | 
CN1Cc2cc(OCCCN3CCC(F)CC3)ccc2C(c2ccccc2)C1 (stereo not drawn) [Example 124, 7-[3-(4-Fluoro-piperidin-1-yl)-propoxy]-2-methyl-4-phenyl-1,2,3,4-tetrahydro-isoquinoline] | 3 | 13 | 56 | 
COc1ccc(C2CN(C)Cc3cc(C#CCCN4CCSCC4)ccc32)cc1 (stereo not drawn) [Example 277, 4-(4-Methoxy-phenyl)-2-methyl-7-(4-thiomorpholin-4-yl-but-1-ynyl)-1,2,3,4-tetrahydro-isoquinoline] | 45 | 37 | 13 | 
CCCN1CCC(COc2ccc3c(c2)CN(C)CC3c2ccc(OC)c(F)c2)CC1 (stereo not drawn) [Example 112, 4-(3-Fluoro-4-methoxy-phenyl)-2-methyl-7-(1-propyl-piperidin-4-ylmethoxy)-1,2,3,4-tetrahydro-isoquinoline] | 9 | 5 | 6 | 
CCN1CCOC(COc2ccc3c(c2)CN(C)CC3c2ccc(OC)cc2)C1 (mixture of isomers) [Example 257, 7-(4-Ethyl-morpholin-2-ylmethoxy)-4-(4-methoxy-phenyl)-2-methyl-1,2,3,4-tetrahydro-isoquinoline] | 11 | 8 | 11 | 
COc1ccc(C2CN(C)Cc3cc(OCC(O)CN4CCCCC4)ccc32)cc1 (stereo not drawn) [Example 42, 1-[4-(4-Methoxy-phenyl)-2-methyl-1,2,3,4-tetrahydro-isoquinolin-7-yloxy]-3-piperidin-1-yl-propan-2-ol] | 3 | 3 | 8 | 

Source: US20060194837A1, “Tetrahydroisoquinoline compounds” (priority 2004, published 2006)
